We go through 20 molecules from ChEMBL document CHEMBL3784918, “Novel 2,4-diaminopyrimidines bearing tetrahydronaphthalenyl moiety against anaplastic lymphoma kinase (ALK): Synthesis, in vitro, ex vivo, and in vivo efficacy studies” (Bioorg Med Chem Lett, 2016).

Each structure is given as a SMILES string. Activity calls are given as the source filed them. No cut-off for these calls is given here.

The target of series [1] is ALK tyrosine kinase receptor (Homo sapiens, UniProt Q9UM73). Description: Inhibition of wild type ALK (unknown origin) after 30 mins by HTRF assay. (TR-FRET usually uses a lanthanide donor and a delayed reading to cut background.)
The target in series [2] is ALK tyrosine kinase receptor (Homo sapiens, UniProt Q9UM73, L1196M). Description: Inhibition of ALK L1196M mutant (unknown origin) after 30 mins by HTRF assay.
The target of another series is EML4-ALK (Homo sapiens) (UniProt Q9UM73+Q9HC35). Description: Inhibition of EML4-ALK in human NCI-H3122 cells assessed as inhibition of cell proliferation after 72 hrs by SRB assay. Type of series: cell-based. On the technique in general: In SRB staining, fixed cells bind dye roughly in proportion to their protein.
A further series relates to BaF3. As to the kind of experiment: Inhibition of ALK L1196M mutant in mouse BA/F3 cells assessed as inhibition of cell proliferation after 72 hrs by WST1 assay. The series is classed as cell-based. Background: Tetrazolium assays rely on reduction of a dye to a coloured formazan, in cell work by metabolically active cells.
Series [3] can be described thus: Tmax in cannulated Sprague Dawley rat at 10 mg/kg administered through oral gavage by LC/MS/MS analysis. The conditions noted are these: in vivo. The series is classed as ADME, organism-based.
A further series concerns the target CYP1A2 (Homo sapiens, UniProt P05177). As to the kind of experiment: Inhibition of CYP1A2 (unknown origin) at 10 uM. Type of series: ADME.
In a further series the target is CYP2C9 (Homo sapiens, UniProt P11712). As to the kind of experiment: Inhibition of CYP2C9 (unknown origin) at 10 uM. Type of series: ADME.
The next series concerns the target CYP2D6 (Homo sapiens, UniProt P10635). As to the kind of experiment: Inhibition of CYP2D6 (unknown origin) at 10 uM. The series is classed as ADME.
For the next series, the target named is CYP3A4 (Homo sapiens, UniProt P08684). Description: Inhibition of CYP3A4 (unknown origin) at 10 uM. Type of series: ADME.
The next series concerns the target CYP2C19 (Homo sapiens, UniProt P33261). As to the kind of experiment: Inhibition of CYP2C19 (unknown origin) at 10 uM. The series is classed as ADME.
Series [4] can be described thus: Cmax in cannulated Sprague Dawley rat at 10 mg/kg administered through oral gavage by LC/MS/MS analysis. The series is classed as ADME, organism-based. On the set-up: dose 10 mg/kg, route oral. Particulars: in vivo.
A short description of series [5]: Half life in cannulated Sprague Dawley rat at 10 mg/kg administered through oral gavage by LC/MS/MS analysis. The series is classed as ADME, organism-based. The conditions noted are these: in vivo.
A short description of series [6]: AUCt in cannulated Sprague Dawley rat at 10 mg/kg administered through oral gavage by LC/MS/MS analysis. The series is classed as ADME, organism-based. The conditions noted are these: in vivo.
The nature of series [7]: AUCinfinity in cannulated Sprague Dawley rat at 10 mg/kg administered through oral gavage by LC/MS/MS analysis. Type of series: ADME, organism-based. On the set-up: dose 10 mg/kg, time infinity, route oral. The conditions noted are these: in vivo.
The subject of another series is NCI-H3122. Description: Antitumor activity against human NCI-H3122 cells xenografted in SCID mouse assessed as tumor growth inhibition at 50 mg/kg, po administered qd for 14 days. Type of series: functional, organism-based.
The subject of the next series is Mus musculus. As to the kind of experiment: Toxicity in SCID mouse xenografted with human H3122 cells assessed as change in body weight at 50 mg/kg, po administered qd for 14 days measured during compound dosing. The series is classed as organism-based. The conditions noted are these: in vivo, 336 h.
A short description of series [8]: Metabolic stability of the compound in human liver microsomes assessed as compound remaining at 1 uM after 30 mins by LC/MS/MS analysis in the presence of NADPH. Particulars: read-out: Stability. Type of series: ADME.
Series [9] in a line: Metabolic stability of the compound in mouse liver microsomes assessed as compound remaining at 1 uM after 30 mins by LC/MS/MS analysis in the presence of NADPH. Type of series: ADME. The conditions noted are these: read-out: Stability.

Sequence of EML4-ALK (Homo sapiens) (Q9HC35 whole entry partner): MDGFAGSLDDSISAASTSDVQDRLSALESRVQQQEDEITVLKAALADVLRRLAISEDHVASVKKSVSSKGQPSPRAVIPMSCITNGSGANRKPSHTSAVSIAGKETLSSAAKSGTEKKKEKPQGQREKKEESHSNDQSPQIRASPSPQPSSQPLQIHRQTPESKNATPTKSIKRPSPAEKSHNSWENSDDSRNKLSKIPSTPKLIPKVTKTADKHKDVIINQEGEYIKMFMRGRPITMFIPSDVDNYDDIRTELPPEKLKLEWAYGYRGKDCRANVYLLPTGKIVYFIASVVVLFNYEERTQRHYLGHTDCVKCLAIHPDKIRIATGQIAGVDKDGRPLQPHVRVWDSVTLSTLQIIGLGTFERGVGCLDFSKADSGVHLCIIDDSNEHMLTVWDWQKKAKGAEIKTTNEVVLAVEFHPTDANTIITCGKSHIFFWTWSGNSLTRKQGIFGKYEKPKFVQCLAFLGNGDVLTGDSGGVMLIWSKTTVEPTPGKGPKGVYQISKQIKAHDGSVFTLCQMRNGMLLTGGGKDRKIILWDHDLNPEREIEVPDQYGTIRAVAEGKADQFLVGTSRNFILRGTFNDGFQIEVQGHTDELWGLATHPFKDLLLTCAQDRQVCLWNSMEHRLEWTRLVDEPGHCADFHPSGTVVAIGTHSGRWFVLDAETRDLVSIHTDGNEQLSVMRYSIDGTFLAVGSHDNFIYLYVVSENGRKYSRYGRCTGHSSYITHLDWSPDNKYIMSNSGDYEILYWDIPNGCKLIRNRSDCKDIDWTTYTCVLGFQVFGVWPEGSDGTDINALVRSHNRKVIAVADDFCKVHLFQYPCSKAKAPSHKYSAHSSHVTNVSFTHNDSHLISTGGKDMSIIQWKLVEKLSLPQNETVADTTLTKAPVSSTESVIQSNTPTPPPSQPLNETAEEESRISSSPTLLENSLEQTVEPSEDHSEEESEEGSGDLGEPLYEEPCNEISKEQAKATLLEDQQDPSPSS
Sequence of EML4-ALK (Homo sapiens) (Q9UM73 19-1620 limits assumed): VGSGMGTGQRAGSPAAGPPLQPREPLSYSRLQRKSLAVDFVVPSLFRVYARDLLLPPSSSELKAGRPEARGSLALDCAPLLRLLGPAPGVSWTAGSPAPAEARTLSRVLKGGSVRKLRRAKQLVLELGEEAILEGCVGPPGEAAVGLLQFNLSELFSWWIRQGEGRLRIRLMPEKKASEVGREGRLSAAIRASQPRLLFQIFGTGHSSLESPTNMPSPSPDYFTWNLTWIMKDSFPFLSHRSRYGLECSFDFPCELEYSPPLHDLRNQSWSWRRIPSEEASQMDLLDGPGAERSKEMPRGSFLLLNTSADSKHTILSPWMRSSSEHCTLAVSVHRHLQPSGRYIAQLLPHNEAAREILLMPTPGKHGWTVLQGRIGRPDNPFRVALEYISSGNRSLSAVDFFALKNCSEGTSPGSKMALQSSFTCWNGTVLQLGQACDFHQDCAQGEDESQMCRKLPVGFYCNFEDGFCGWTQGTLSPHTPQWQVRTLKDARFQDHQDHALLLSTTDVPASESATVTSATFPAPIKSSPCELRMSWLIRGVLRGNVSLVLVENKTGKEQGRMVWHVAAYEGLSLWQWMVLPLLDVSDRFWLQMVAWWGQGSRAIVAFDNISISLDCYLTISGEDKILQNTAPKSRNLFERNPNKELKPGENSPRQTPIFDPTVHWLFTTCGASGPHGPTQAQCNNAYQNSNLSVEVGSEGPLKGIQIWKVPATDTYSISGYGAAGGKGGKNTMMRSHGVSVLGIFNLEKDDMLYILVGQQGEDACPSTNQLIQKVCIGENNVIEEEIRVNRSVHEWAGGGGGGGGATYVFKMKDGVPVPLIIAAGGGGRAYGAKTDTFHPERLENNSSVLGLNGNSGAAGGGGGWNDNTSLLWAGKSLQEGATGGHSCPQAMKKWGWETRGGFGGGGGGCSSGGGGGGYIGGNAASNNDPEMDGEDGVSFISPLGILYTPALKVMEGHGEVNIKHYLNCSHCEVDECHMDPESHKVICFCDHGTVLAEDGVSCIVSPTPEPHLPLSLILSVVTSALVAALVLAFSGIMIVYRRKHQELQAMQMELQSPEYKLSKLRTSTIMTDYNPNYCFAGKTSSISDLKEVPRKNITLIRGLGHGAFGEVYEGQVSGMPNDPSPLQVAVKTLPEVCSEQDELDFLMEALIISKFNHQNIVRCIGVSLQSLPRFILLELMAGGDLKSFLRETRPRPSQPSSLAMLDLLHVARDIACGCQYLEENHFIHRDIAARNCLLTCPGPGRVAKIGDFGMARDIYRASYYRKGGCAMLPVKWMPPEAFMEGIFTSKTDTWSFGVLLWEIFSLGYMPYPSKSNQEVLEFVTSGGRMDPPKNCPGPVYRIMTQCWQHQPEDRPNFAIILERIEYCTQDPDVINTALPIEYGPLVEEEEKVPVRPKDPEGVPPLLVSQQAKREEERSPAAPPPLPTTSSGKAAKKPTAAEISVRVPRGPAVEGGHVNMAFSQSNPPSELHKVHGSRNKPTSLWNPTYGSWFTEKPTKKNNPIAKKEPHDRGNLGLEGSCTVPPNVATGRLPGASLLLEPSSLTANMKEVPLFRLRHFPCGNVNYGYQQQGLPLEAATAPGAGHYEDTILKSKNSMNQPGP
Sequence of ALK tyrosine kinase receptor (Homo sapiens, UniProt Q9UM73, L1196M) (Q9UM73 19-1620 L1196M limits assumed): as the sequence (Q9UM73 19-1620 limits assumed) above, with L1178M counted along it
Sequence of ALK tyrosine kinase receptor (Homo sapiens, UniProt Q9UM73) (Q9UM73 whole entry): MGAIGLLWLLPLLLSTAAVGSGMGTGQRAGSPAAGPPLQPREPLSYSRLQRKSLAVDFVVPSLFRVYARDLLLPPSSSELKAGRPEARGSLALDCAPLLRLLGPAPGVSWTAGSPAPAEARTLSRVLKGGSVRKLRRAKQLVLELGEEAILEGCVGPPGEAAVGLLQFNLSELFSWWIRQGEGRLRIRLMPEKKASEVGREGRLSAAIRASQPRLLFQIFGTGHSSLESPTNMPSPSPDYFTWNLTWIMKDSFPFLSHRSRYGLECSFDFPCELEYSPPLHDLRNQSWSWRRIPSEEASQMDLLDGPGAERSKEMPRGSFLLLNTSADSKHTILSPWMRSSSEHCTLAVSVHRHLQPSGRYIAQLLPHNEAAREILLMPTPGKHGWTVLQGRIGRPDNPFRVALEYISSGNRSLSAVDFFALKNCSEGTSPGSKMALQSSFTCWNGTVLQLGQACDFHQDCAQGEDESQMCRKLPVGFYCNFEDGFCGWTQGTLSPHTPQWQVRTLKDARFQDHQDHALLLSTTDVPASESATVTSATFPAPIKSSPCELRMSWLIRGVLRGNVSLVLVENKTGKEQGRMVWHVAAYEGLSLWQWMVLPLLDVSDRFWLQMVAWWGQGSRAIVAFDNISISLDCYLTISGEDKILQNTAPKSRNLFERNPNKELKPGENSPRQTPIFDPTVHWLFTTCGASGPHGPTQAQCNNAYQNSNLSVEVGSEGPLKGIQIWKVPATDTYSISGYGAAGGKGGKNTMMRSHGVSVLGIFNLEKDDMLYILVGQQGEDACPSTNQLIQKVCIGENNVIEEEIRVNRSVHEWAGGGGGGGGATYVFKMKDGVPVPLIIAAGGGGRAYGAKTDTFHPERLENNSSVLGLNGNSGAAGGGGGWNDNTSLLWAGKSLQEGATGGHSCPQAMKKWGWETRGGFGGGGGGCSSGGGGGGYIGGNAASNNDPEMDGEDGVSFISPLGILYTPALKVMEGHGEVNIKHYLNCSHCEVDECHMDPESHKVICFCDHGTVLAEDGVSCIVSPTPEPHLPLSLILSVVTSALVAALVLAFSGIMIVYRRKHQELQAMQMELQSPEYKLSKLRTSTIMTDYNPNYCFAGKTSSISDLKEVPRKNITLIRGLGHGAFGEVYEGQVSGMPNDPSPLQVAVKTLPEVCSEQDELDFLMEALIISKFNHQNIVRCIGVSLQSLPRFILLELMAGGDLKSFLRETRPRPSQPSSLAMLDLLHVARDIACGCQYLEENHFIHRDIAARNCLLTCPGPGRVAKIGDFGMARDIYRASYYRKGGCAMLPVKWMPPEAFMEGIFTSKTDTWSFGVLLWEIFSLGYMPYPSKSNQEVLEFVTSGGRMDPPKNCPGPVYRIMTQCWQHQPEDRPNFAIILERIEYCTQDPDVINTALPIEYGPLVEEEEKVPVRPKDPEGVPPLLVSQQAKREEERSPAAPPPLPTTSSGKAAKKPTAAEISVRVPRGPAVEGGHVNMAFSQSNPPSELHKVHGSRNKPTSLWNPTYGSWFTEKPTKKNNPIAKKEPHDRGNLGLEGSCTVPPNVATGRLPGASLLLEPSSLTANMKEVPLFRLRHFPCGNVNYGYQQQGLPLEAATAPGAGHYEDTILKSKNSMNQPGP
Sequence of CYP2D6 (P10635 whole entry): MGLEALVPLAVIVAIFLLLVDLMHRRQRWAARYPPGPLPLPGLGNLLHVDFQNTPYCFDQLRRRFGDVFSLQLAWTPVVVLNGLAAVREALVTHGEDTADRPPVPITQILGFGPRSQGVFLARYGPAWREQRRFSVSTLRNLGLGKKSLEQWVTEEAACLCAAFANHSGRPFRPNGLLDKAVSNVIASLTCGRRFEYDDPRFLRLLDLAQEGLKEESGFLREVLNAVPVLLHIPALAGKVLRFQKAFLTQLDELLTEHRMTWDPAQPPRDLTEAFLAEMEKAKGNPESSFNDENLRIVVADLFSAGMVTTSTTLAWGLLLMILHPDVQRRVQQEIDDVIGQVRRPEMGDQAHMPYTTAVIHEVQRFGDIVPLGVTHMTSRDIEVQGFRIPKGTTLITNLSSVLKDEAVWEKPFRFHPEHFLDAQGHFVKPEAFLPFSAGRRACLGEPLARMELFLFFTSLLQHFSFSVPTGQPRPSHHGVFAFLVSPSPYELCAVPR

Turning to `COc1cc2c(cc1Nc1ncc(Cl)c(Nc3ccccc3S(=O)(=O)C(C)C)n1)C(C)(C)/C(=N/N1CCOCC1)CC2`, the IC50 (usually the midpoint of a concentration-inhibition curve) amounted to 122 nM in series [1] and 222 nM in [2]. For the same molecule, the CC50 – broadly, the concentration giving 50% cytotoxicity – came to 732 nM at EML4-ALK (Homo sapiens) and 1640 nM with BaF3.
Consider `COc1cc2c(cc1Nc1ncc(Cl)c(Nc3ccccc3S(=O)(=O)C(C)C)n1)C(C)(C)C(O)CC2` (stereo unspecified), for which the IC50 in series [1] came out at 34 nM; in [2] it was 109 nM. Also, the CC50 stood at 726 nM on EML4-ALK (Homo sapiens) and 1600 nM in the series with BaF3.
In the same order, the values of `COc1cc2c(cc1Nc1ncc(Cl)c(Nc3ccccc3S(=O)(=O)C(C)C)n1)CC/C(=N\NC(C)=O)C2(C)C` are 21 nM, 40 nM, 128 nM and 314 nM.
Turning to `COc1cc2c(cc1Nc1ncc(Cl)c(Nc3ccccc3S(=O)(=O)C(C)C)n1)C(C)(C)/C(=N/N1CCN(C)CC1)CC2`, the IC50 in series [1] is 44 nM; in [2] it was 200 nM. For the same molecule, the CC50 on EML4-ALK (Homo sapiens) turned out to be 2830 nM; with BaF3, 2600 nM.
For the molecule `COc1cc2c(cc1Nc1ncc(Cl)c(Nc3ccccc3S(=O)(=O)C(C)C)n1)CC/C(=N\N1CCN(C)CC1)C2(C)C`, in [3], the Tmax (commonly the time from dosing to the highest level) came out at 0.833 h. For the same molecule, the inhibition (usually the share of the control response that was lost under treatment) at 10 µM came to 7.2% against CYP1A2; 17.1% at CYP2C9; 11.4% on CYP2D6; 47.5% on CYP3A4; 43.4% at CYP2C19. Besides, the concentration in [4] peaked (Cmax) at 1270 ng/mL. In [5], the half-life – broadly, how long it takes for the measured level to halve – is 3.04 h. In series [6], the AUC(0-t) (in general, the area under the concentration-time curve up to a stated or last time point) turned out to be 3750 ng·h/mL. In series [7], the AUC(0-inf) (commonly total exposure, with the tail of the curve extrapolated) stood at 3760 ng·h/mL. In addition, the TGI entry with NCI-H3122 is “Active”. Further, the Activity result with Mus musculus was “Non-toxic”. Moreover, the IC50 in series [1] came to 0.5 nM; in series [2], 8.4 nM. The CC50 at EML4-ALK (Homo sapiens) stood at 14 nM; in the series on BaF3, 66 nM. Moreover, the remaining at 0.5 h, 1 µM turned out to be 20% in [8] and 14% in series [9].
Turning to `COc1cc2c(cc1Nc1ncc(Cl)c(Nc3ccccc3S(=O)(=O)C(C)C)n1)CC/C(=N\N1CCOCC1)C2(C)C`, the 50% inhibitory concentration (IC50) in [1] and in series [2] was 40 nM each time. Moreover, the results for the 50% cytotoxic concentration (CC50) on EML4-ALK (Homo sapiens) and in the series with BaF3 were 30 nM and 416 nM, respectively.
As to `COc1cc2c(cc1Nc1ncc(Cl)c(Nc3ccccc3S(=O)(=O)C(C)C)n1)CCC(=O)C2(C)C`, in the series with BaF3, the CC50 turned out to be 432 nM.
`COc1cc2c(cc1Nc1ncc(Cl)c(Nc3ccccc3S(=O)(=O)C(C)C)n1)C(C)(C)/C(=N/NC(C)=O)CC2`: the IC50 came to 52 nM in series [1] and 201 nM in [2]. Besides, the values for the CC50 at EML4-ALK (Homo sapiens) and in the series with BaF3 were 146 nM and 640 nM, respectively.
As to `COc1cc2c(cc1Nc1ncc(Cl)c(Nc3ccccc3S(=O)(=O)C(C)C)n1)CCC(NC(=O)CO)C2(C)C` (stereo unspecified), the IC50 in series [1] amounted to 6.1 nM; in [2], 9.9 nM. The CC50 on EML4-ALK (Homo sapiens) amounted to 44 nM; in the series on BaF3, 86 nM.
Take `COc1cc2c(cc1Nc1ncc(Cl)c(Nc3ccccc3S(=O)(=O)C(C)C)n1)C(C)(C)/C(=N/NC(N)=O)CC2`: the IC50 in [1] came out at 16 nM; in series [2], 97 nM. Moreover, the half-maximal cytotoxic concentration (CC50) turned out to be 146 nM on EML4-ALK (Homo sapiens) and 400 nM with BaF3.
`COc1cc2c(cc1Nc1ncc(Cl)c(Nc3ccccc3S(=O)(=O)C(C)C)n1)C(C)(C)C(N)CC2` (stereo unspecified): the IC50 in [1] stood at 27 nM; in series [2] it was 94 nM. Moreover, the CC50 is 2090 nM on EML4-ALK (Homo sapiens) and 1750 nM in the series with BaF3.
Turning to `Cc1cc(Nc2ncc(Cl)c(Nc3ccccc3S(=O)(=O)C(C)C)n2)c(OC(C)C)cc1C1CCNCC1`, the TGI result with NCI-H3122 was “Active”. For the same molecule, the cytotoxic concentration (CC50) is 38 nM at EML4-ALK (Homo sapiens) and 75 nM with BaF3.
For `COc1cc2c(cc1Nc1ncc(Cl)c(Nc3ccccc3S(=O)(=O)C(C)C)n1)CCC(O)C2(C)C` (stereo unspecified), the IC50 stood at 21 nM in series [1] and 56 nM in series [2]. Also, the figures for the CC50 on EML4-ALK (Homo sapiens) and with BaF3 were 99 nM and 299 nM, respectively.
Consider `COc1cc2c(cc1Nc1ncc(Cl)c(Nc3ccccc3S(=O)(=O)C(C)C)n1)C(C)(C)/C(=N/NC(=N)N)CC2`, for which the IC50 in series [1] stood at 16 nM; in series [2] it was 100 nM. Besides, the CC50 at EML4-ALK (Homo sapiens) stood at 2400 nM; in the series on BaF3, 2090 nM.
`COc1cc2c(cc1Nc1ncc(Cl)c(Nc3ccccc3S(=O)(=O)C(C)C)n1)CC/C(=N\O)C2(C)C`: the 50% inhibitory concentration (IC50) in series [1] was 212 nM. The 50% cytotoxic concentration (CC50) at EML4-ALK (Homo sapiens) was 276 nM; in the series with BaF3, 1530 nM.
For the molecule `COc1cc2c(cc1Nc1ncc(Cl)c(Nc3ccccc3S(=O)(=O)C(C)C)n1)CCC(NC(=O)CN(C)C)C2(C)C` (stereo unspecified), the 50% inhibitory concentration (IC50) is 4.2 nM in series [1] and 3.6 nM in series [2]. Moreover, the CC50 is 39 nM at EML4-ALK (Homo sapiens) and 71 nM in the series on BaF3.
As to `COc1cc2c(cc1Nc1ncc(Cl)c(Nc3ccccc3S(=O)(=O)C(C)C)n1)C(C)(C)C(=O)CC2`, in the series on BaF3, the CC50 is 2000 nM.
Regarding `COc1cc2c(cc1Nc1ncc(Cl)c(Nc3ccccc3S(=O)(=O)C(C)C)n1)C(C)(C)/C(=N/O)CC2`, the IC50 in series [1] was 424 nM; in series [2] it was 600 nM. Further, the half-maximal cytotoxic concentration (CC50) at EML4-ALK (Homo sapiens) stood at 1220 nM; with BaF3 it was 1360 nM.
For the molecule `COc1cc2c(cc1Nc1ncc(Cl)c(Nc3ccccc3S(=O)(=O)C(C)C)n1)CC/C(=N\NC(N)=O)C2(C)C`, the IC50 turned out to be 29 nM in series [1] and 42 nM in [2]. The CC50 at EML4-ALK (Homo sapiens) came to 117 nM; in the series with BaF3, 334 nM.
In the case of `COc1cc2c(cc1Nc1ncc(Cl)c(Nc3ccccc3S(=O)(=O)C(C)C)n1)CC/C(=N\NC(=N)N)C2(C)C`, the IC50 in series [1] stood at 18 nM; in [2] it was 37 nM. Further, the figures for the CC50 on EML4-ALK (Homo sapiens) and with BaF3 were 235 nM and 1580 nM, respectively.
